Settings: Liquid, Vibrating tube method

CCCCCCCCCC [decane]
Settings	mass density [kg/m3]
333.14 K, 31467 kPa	725.7
333.14 K, 31504 kPa	725.7
333.14 K, 31531 kPa	725.6
333.14 K, 31564 kPa	725.8
333.14 K, 31694 kPa	725.9
333.14 K, 31764 kPa	725.9
333.14 K, 32193 kPa	726
333.14 K, 32227 kPa	726.1
333.14 K, 32261 kPa	726.2
333.14 K, 32305 kPa	726.2
333.14 K, 32335 kPa	726.3
333.14 K, 32366 kPa	726.3
333.14 K, 32401 kPa	726.4
333.14 K, 32435 kPa	726.3
333.15 K, 358 kPa	699.5
333.15 K, 377 kPa	699.6
333.15 K, 404 kPa	699.5
333.15 K, 423 kPa	699.6
333.15 K, 440 kPa	699.5
333.15 K, 465 kPa	699.6
333.15 K, 501 kPa	699.6
333.15 K, 536 kPa	699.7
333.15 K, 563 kPa	699.6
333.15 K, 600 kPa	699.7
333.15 K, 627 kPa	699.8
333.15 K, 645 kPa	699.8
333.15 K, 672 kPa	699.8
333.15 K, 696 kPa	699.8
333.15 K, 727 kPa	699.7
333.15 K, 765 kPa	699.9
333.15 K, 1005 kPa	700.1
333.15 K, 1052 kPa	700.2
333.15 K, 1108 kPa	700.3
333.15 K, 1167 kPa	700.2
333.15 K, 1210 kPa	700.4
333.15 K, 1236 kPa	700.4
333.15 K, 1263 kPa	700.3
333.15 K, 1284 kPa	700.3
333.15 K, 1315 kPa	700.4
333.15 K, 1341 kPa	700.4
333.15 K, 1363 kPa	700.5
333.15 K, 1393 kPa	700.4
333.15 K, 1421 kPa	700.6
333.15 K, 1449 kPa	700.6
333.15 K, 1481 kPa	700.6
333.15 K, 1519 kPa	700.7
333.15 K, 1544 kPa	700.7
333.15 K, 1588 kPa	700.7
333.15 K, 1620 kPa	700.7
333.15 K, 1662 kPa	700.7
333.15 K, 1706 kPa	700.8
333.15 K, 1751 kPa	701
333.15 K, 1782 kPa	700.9
333.15 K, 1825 kPa	700.9
333.15 K, 1879 kPa	701
333.15 K, 1924 kPa	701
333.15 K, 1954 kPa	701
333.15 K, 2001 kPa	701.1
333.15 K, 2049 kPa	701.1
333.15 K, 2081 kPa	701.2
333.15 K, 2130 kPa	701.3
333.15 K, 2176 kPa	701.4
333.15 K, 2223 kPa	701.4
333.15 K, 2280 kPa	701.4
333.15 K, 2332 kPa	701.3
333.15 K, 2406 kPa	701.5
333.15 K, 2460 kPa	701.6
333.15 K, 2497 kPa	701.6
333.15 K, 2529 kPa	701.6
333.15 K, 2556 kPa	701.6
333.15 K, 2594 kPa	701.7
333.15 K, 2623 kPa	701.7
333.15 K, 2666 kPa	701.7
333.15 K, 2701 kPa	701.7
333.15 K, 2737 kPa	701.7
333.15 K, 2769 kPa	701.8
333.15 K, 2837 kPa	701.9
333.15 K, 3106 kPa	702.2
333.15 K, 3141 kPa	702.3
333.15 K, 3150 kPa	702.3
333.15 K, 3174 kPa	702.3
333.15 K, 3195 kPa	702.3
333.15 K, 3232 kPa	702.3
333.15 K, 3264 kPa	702.3
333.15 K, 3283 kPa	702.4
333.15 K, 3311 kPa	702.4
333.15 K, 3335 kPa	702.4
333.15 K, 3368 kPa	702.4
333.15 K, 3387 kPa	702.5
333.15 K, 3414 kPa	702.4
333.15 K, 3444 kPa	702.5
333.15 K, 3468 kPa	702.5
333.15 K, 3500 kPa	702.6
333.15 K, 3528 kPa	702.6
333.15 K, 3556 kPa	702.7
333.15 K, 3593 kPa	702.6
333.15 K, 3622 kPa	702.7
333.15 K, 3651 kPa	702.7
333.15 K, 3678 kPa	702.8
333.15 K, 3717 kPa	702.7
333.15 K, 3736 kPa	702.8
333.15 K, 3769 kPa	702.8
333.15 K, 3790 kPa	702.8
333.15 K, 3823 kPa	702.8
333.15 K, 3870 kPa	703
333.15 K, 3903 kPa	703
333.15 K, 3934 kPa	703
333.15 K, 3970 kPa	703
333.15 K, 3998 kPa	703.2
333.15 K, 4018 kPa	703.1
333.15 K, 4043 kPa	703.1
333.15 K, 4068 kPa	703.1
333.15 K, 4097 kPa	703.1
333.15 K, 4127 kPa	703.1
333.15 K, 4159 kPa	703.3
333.15 K, 4185 kPa	703.1
333.15 K, 4204 kPa	703.1
333.15 K, 4227 kPa	703.2
333.15 K, 4258 kPa	703.3
333.15 K, 4277 kPa	703.4
333.15 K, 4305 kPa	703.4
333.15 K, 4337 kPa	703.5
333.15 K, 4365 kPa	703.4
333.15 K, 4394 kPa	703.5
333.15 K, 4422 kPa	703.5
333.15 K, 4448 kPa	703.5
333.15 K, 4474 kPa	703.6
333.15 K, 4505 kPa	703.5
333.15 K, 4527 kPa	703.6
333.15 K, 4547 kPa	703.5
333.15 K, 4580 kPa	703.6
333.15 K, 4599 kPa	703.6
333.15 K, 4631 kPa	703.7
333.15 K, 4657 kPa	703.7
333.15 K, 4686 kPa	703.7
333.15 K, 4710 kPa	703.6
333.15 K, 4738 kPa	703.8
333.15 K, 4760 kPa	703.6
333.15 K, 4781 kPa	703.9
333.15 K, 4846 kPa	703.9
333.15 K, 4874 kPa	704
333.15 K, 4903 kPa	703.9
333.15 K, 4957 kPa	704.1
333.15 K, 4981 kPa	704.1
333.15 K, 5033 kPa	704.1
333.15 K, 5058 kPa	704
333.15 K, 5078 kPa	704.2
333.15 K, 5105 kPa	704.2
333.15 K, 5125 kPa	704.1
333.15 K, 5153 kPa	704.1
333.15 K, 5182 kPa	704.1
333.15 K, 5207 kPa	704.3
333.15 K, 5223 kPa	704.3
333.15 K, 5253 kPa	704.2
333.15 K, 5272 kPa	704.3
333.15 K, 5288 kPa	704.2
333.15 K, 5306 kPa	704.4
333.15 K, 5324 kPa	704.3
333.15 K, 5342 kPa	704.4
333.15 K, 5361 kPa	704.3
333.15 K, 5380 kPa	704.3
333.15 K, 5399 kPa	704.4
333.15 K, 5413 kPa	704.4
333.15 K, 5434 kPa	704.4
333.15 K, 5450 kPa	704.5
333.15 K, 5470 kPa	704.5
333.15 K, 5498 kPa	704.5
333.15 K, 5514 kPa	704.6
333.15 K, 5530 kPa	704.6
333.15 K, 5548 kPa	704.5
333.15 K, 5567 kPa	704.7
333.15 K, 5637 kPa	704.6
333.15 K, 5652 kPa	704.6
333.15 K, 5669 kPa	704.7
333.15 K, 5690 kPa	704.7
333.15 K, 5721 kPa	704.7
333.15 K, 5735 kPa	704.7
333.15 K, 6140 kPa	705.1
333.15 K, 6164 kPa	705
333.15 K, 6191 kPa	705.1
333.15 K, 6212 kPa	705.1
333.15 K, 6234 kPa	705.2
333.15 K, 6252 kPa	705.2
333.15 K, 6280 kPa	705.2
333.15 K, 6299 kPa	705.2
333.15 K, 6323 kPa	705.2
333.15 K, 6345 kPa	705.3
333.15 K, 6367 kPa	705.3
333.15 K, 6389 kPa	705.2
333.15 K, 6418 kPa	705.4
333.15 K, 6437 kPa	705.3
333.15 K, 6464 kPa	705.3
333.15 K, 6483 kPa	705.4
333.15 K, 6513 kPa	705.5
333.15 K, 6533 kPa	705.4
333.15 K, 6560 kPa	705.5
333.15 K, 6595 kPa	705.5
333.15 K, 6622 kPa	705.6
333.15 K, 6882 kPa	705.7
333.15 K, 6909 kPa	705.8
333.15 K, 6935 kPa	705.8
333.15 K, 6958 kPa	706
333.15 K, 6985 kPa	705.9
333.15 K, 7028 kPa	705.9
333.15 K, 7059 kPa	706
333.15 K, 7087 kPa	706
333.15 K, 7110 kPa	706
333.15 K, 7135 kPa	705.9
333.15 K, 7164 kPa	706
333.15 K, 7188 kPa	706
333.15 K, 7209 kPa	706.1
333.15 K, 7243 kPa	706
333.15 K, 7268 kPa	706.2
333.15 K, 7306 kPa	706.1
333.15 K, 7344 kPa	706.2
333.15 K, 8096 kPa	706.9
333.15 K, 8122 kPa	706.9
333.15 K, 8147 kPa	707
333.15 K, 8166 kPa	707
333.15 K, 8186 kPa	707
333.15 K, 8211 kPa	707
333.15 K, 8236 kPa	707
333.15 K, 8262 kPa	707
333.15 K, 8292 kPa	707
333.15 K, 8315 kPa	707
333.15 K, 8335 kPa	707
333.15 K, 8358 kPa	707
333.15 K, 8381 kPa	707.2
333.15 K, 8505 kPa	707.3
333.15 K, 8536 kPa	707.2
333.15 K, 8561 kPa	707.4
333.15 K, 8613 kPa	707.4
333.15 K, 8638 kPa	707.3
333.15 K, 8740 kPa	707.4
333.15 K, 8795 kPa	707.5
333.15 K, 8818 kPa	707.7
333.15 K, 8851 kPa	707.6
333.15 K, 8872 kPa	707.6
333.15 K, 8900 kPa	707.6
333.15 K, 8924 kPa	707.6
333.15 K, 9353 kPa	708
333.15 K, 9380 kPa	708.2
333.15 K, 9411 kPa	708.1
333.15 K, 9435 kPa	708.2
333.15 K, 9465 kPa	708.1
333.15 K, 9493 kPa	708.1
333.15 K, 9570 kPa	708.3
333.15 K, 9598 kPa	708.2
333.15 K, 9623 kPa	708.2
333.15 K, 9648 kPa	708.3
333.15 K, 9680 kPa	708.2
333.15 K, 9709 kPa	708.3
333.15 K, 9849 kPa	708.4
333.15 K, 9874 kPa	708.5
333.15 K, 9908 kPa	708.6
333.15 K, 9931 kPa	708.6
333.15 K, 9958 kPa	708.6
333.15 K, 9981 kPa	708.6
333.15 K, 10004 kPa	708.6
333.15 K, 10023 kPa	708.6
333.15 K, 10054 kPa	708.6
333.15 K, 10081 kPa	708.7
333.15 K, 10109 kPa	708.7
333.15 K, 10145 kPa	708.8
333.15 K, 10175 kPa	708.9
333.15 K, 10207 kPa	708.8
333.15 K, 10231 kPa	708.8
333.15 K, 10260 kPa	708.8
333.15 K, 10298 kPa	708.9
333.15 K, 10331 kPa	708.7
333.15 K, 10354 kPa	708.9
333.15 K, 10384 kPa	709
333.15 K, 10403 kPa	708.9
